Data set [1] addresses T1, solubilized γ-secretase (Homo sapiens, UniProt P49768).
T1 construct: γ-secretase activity from HeLa cells specifically cleaves the Notch protein; endogenous in cells; host or cells: HeLa cells (detergent-solubilized membrane fraction); substrate made in E. coli BL21 (DE3)
In words: In vitro Notch cleavage ELISA (NusA-Notch fusion cleaved by solubilized γ-secretase, Val-1744/anti-FLAG sandwich). In kind it is biochemical. As to the method: In vitro Notch Cleavage ELISA. Notch cleavage was also assessed using an ELISA technique. Prior to setting up a reaction, the required number of wells in a 96-well half-area plate (Costar) were coated with 50 μl of Val-1744 antibody diluted 1:200 in 0.1 M NaHCO3, pH 8.2. Plates were incubated overnight at 4° C. The Notch cleavage reaction was set up as follows. NusA-Notch (0.9 μM) was incubated with 70 mg/ml of solubilized γ-secretase in 50 mM Pipes, pH 7.0, 0.25% CHAPSO in a total volume of 25 μl overnight at 37° C. The next day, the plate coated with Val-1744 antibody was washed 3 times with PBS/0.05% Tween-20 and blocked using 4% BSA in PBS/0.05% Tween-20 for 1 hour. […] The color was allowed to develop for 1 hour and 50 µl of 1M H3PO4 was added and the plates read at 450 nm on a SpectraMax Plus plate reader. […]
Inhibition of Notch Cleavage. […] IC50′s were calculated for inhibitors using the 4-parameter logistic model in the GraFit 4.0 program.
It is based on a sandwich ELISA using the highly specific anti-Val 1744 and anti Flag antibodies to capture the N- and C-terminus of the NICD fragment from the Notch fusion protein in the presence of γ-secretase. […] The chromogenic substrate for HRP, TMB reagent (Kirkegaard & Perry) is added and the color once developed is read at 450 nm on a SpectraMax Plus plate reader.
(An ELISA detects its analyte on a solid surface through an enzyme-linked reagent.)

Data set [2] deals with T1, solubilized γ-secretase. In words: Cleavage of Notch as determined by Western blot analysis. The data set is classed as biochemical. How it is done:
Cleavage of Notch as Determined by Western Blot Analysis. NusA-Notch fusion (1.7 μM) was incubated with 70 mg/ml solubilized γ-secretase in 50 mM Pipes, pH 7.0, 0.25% CHAPSO in a total volume of 50 μl overnight at 37° C. DAPT (PHA-568638) was added at varying concentrations. The reactions were stopped with the addition of 12.5 μl of 5× Laemmli buffer (Laemmli 1970) and 30 μl of the mixture was electrophoresed on a 15% SDS-PAGE. Proteins were transferred to nitrocellulose using a semi-dry blot apparatus (Millipore) and blocked for 2 hours using 4% BSA in PBS/0.5% Tween-20. […] The membrane was washed three times with PBS/0.5% Tween-20 followed by incubation with anti-rabbit IgG-HRP (1:5000 dil in 4% BSA in PBS/0.5% Tween-20). The membrane was again washed three times and developed using ECL reagents (Amersham, Piscataway, N.J.).
A general note: A western blot detects proteins with antibodies after separation by electrophoresis.

The Km is the substrate concentration at which the rate is half of its maximum. As a reminder, the IC50 is the midpoint of a concentration-inhibition curve.

For the compound “Notch fusion protein substrate: soluble fusion of mouse Notch-1 amino acids 1703-1860 to C-terminus of NusA with C-terminal Flag and 8His tags (SEQ ID NO:2)”, the Km in the data set with solubilized γ-secretase [1] (Michaelis-Menten fit, 0.11 to 3.6 μM substrate, FIG. 8A, read-out: apparent Km for hydrolysis of Notch fusion protein substrate by solubilized γ-secretase activity) was about 0.7 µM.
With `C[C@H](NC(=O)Cc1cc(F)cc(F)c1)C(=O)N[C@H](C(=O)OC(C)(C)C)c1ccccc1` [DAPT], the “inhibition of specific cleavage in Notch protein (1743/1744)” value against solubilized γ-secretase [2] (Western blot probed with Val-1744 antibody, varying concentrations, FIG. 5 lanes 4-8) was “inhibited in a dose-dependent manner”. On solubilized γ-secretase [2] (Western blot using the C-terminal Flag antibody, three immunoreactive bands), the “inhibition of cleavage products of Notch fusion protein” value is listed as “only one cleavage product was inhibitable”. In addition, the IC50 on solubilized γ-secretase [1] (NusA-Notch substrate, overnight 37° C., FIG. 9, read-out: IC50, inhibition of γ-secretase-mediated Notch cleavage) is 2.4 nM.

Values taken from patent US20110098227A1, “Soluble notch-based substrates for gamma secretase and methods and compositions for using same” (priority 2002, published 2011).
